In patent US4806537A (City of Hope, priority 1988, dated 1989):
pIC50: −log10 of the molar value. Read-outs that look alike come from different tables or passages of the source.

Experiments:
patients with AD = details: cited from earlier work
mice = details: cited from earlier work
[1] = in vivo; cited from earlier work
K^+ transport = experiment: K^+ transport: ^86 Rb uptake by P3 membrane fractions of whole mouse brain; assay type: biochemical, Swiss mice; details: for pIC50: ^86 Rb uptake, P3 fraction, 0° C., pH 7, 5 seconds; for K^+ transport inhibition activity relative to amodiaquin (in words): fraction of amodiaquin's activity; for K^+ Transport Relative Potency: relative to amodiaquin = 1; for Concentration inhibiting K^+ transport (selection criterion met): submillimolar concentrations
Method: To obtain the data set forth in Table I, K^+ -transport was measured using P3 membrane fractions prepared from whole brains of Swiss mice. […] The resulting supernatant was centrifuged at 17,000 g for 15 minutes, and the supernatant from the latter was centrifuged at 70,000 g for 1 hour to pellet the P3 fraction. The P3 pellet was washed by resuspension in 50 mM Tris-citrate (pH 7.3). After 10 minutes on ice, the suspension was centrifuged at 70,000 g for 10 minutes. This washing procedure was repeated twice using distilled water for the resuspension. […] The suspension (2-3 mg protein/ml) was stabilized on ice for 1 hour prior to use. Uptake of ^86 Rb (radioactive) was used to assess the K^+ -transport of the P3 articles. Many published experiments have shown the ^86 Rb, with a half-life 36 times longer than ^42 K, is a suitable tracer for K. Rb permeates neuronal K channels as well as does K itself.
After filtration of the samples, the filters were washed rapidly three times with 10^-3 M triethanolamine containing 0.1M RbCl (non-radioactive) and counted in ACS liquid scintillation cocktail (Amersham). In calculating the results, the uptake found in the presence of 0.1M non-radioactive RbCl was subtracted from that found in the presence of various concentrations of the test substances in the presence of 10^-6 M ^86 RbCl alone. […] Between 0.2 and 0.5 mg/ml usually were employed. The results were normalized by calculating them as percentages of the uptake observed with 10^-6 M ^86 RbCl alone.

Acetylcholinesterase = target: T1, Acetylcholinesterase (Electrophorus electricus, UniProt O42275); experiment: Acetylcholinesterase activity, acetylthiocholine substrate, colorimetric (Ellman); assay type: biochemical, electric eel; details: for Cholinesterase inhibitory potency relative to amodiaquin (in words): fraction of amodiaquin's inhibitory potency; for Acetylcholinesterase Activity Rank Order: rank among the five substances; for Acetylcholinesterase Activity Relative Potency: relative to amodiaquin = 1
T1 construct: The enzyme employed was prepared from the electric organ of the electric eel; from tissue; host or cells: electric organ of the electric eel
T1 sequence (O42275 24-633): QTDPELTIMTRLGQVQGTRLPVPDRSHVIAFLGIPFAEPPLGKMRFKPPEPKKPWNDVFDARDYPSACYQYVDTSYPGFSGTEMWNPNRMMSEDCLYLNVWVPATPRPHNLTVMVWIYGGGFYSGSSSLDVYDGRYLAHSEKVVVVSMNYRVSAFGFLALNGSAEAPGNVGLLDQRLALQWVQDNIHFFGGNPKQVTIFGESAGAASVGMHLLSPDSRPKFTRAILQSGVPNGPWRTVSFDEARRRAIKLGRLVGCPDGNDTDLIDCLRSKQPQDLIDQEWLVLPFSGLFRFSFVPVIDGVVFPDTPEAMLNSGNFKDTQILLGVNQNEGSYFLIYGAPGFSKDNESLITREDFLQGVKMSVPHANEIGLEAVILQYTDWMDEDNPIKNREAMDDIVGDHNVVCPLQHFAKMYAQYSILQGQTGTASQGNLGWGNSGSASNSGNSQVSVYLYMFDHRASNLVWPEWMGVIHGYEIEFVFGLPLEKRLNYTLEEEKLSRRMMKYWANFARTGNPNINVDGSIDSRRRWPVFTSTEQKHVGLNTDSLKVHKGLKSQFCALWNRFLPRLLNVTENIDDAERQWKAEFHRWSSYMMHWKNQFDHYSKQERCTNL
Method: Cholinesterase activity reported in Table I was measured by a standard procedure. The enzyme employed was prepared from the electric organ of the electric eel. It is known to have the same properties as the enzyme of mammalian nervous tissue. Acetylthiocholine was used as substrate.
Inhibitory potency of substances was determined by measuring enzyme activity in the absence and presence of varying concentrations of the test substances.

cholinesterase = details: cited from earlier work

Row | SMILES | Effect on symptoms of AD (patients with AD) | Effect on behavioral deficit produced by anoxia (mice) | Effect on general anesthesia [1] | pIC50 (K^+ transport) | pIC50 (Acetylcholinesterase) | Cholinesterase inhibition (cholinesterase) | K^+ transport inhibition activity relative to amodiaquin (in words) (K^+ transport) | K^+ Transport Relative Potency (K^+ transport) | Concentration inhibiting K^+ transport (selection criterion met) (K^+ transport) | pIC50 (Acetylcholinesterase; electric eel enzyme, acetylthiocholine substrate, read-out: Acetylcholinesterase Activity IC50) | Cholinesterase inhibitory potency relative to amodiaquin (in words) (Acetylcholinesterase) | Acetylcholinesterase Activity Rank Order (Acetylcholinesterase) | Acetylcholinesterase Activity Relative Potency (Acetylcholinesterase)
1 | Nc1ccncc1 [4AP, 4-aminopyridine] | may improve symptoms in some patients with AD | partially reversed the behavioral deficit | rapidly overcomes the effects of general anesthesia | – | – | – | – | – | – | – | – | – | –
2 | Nc1c2ccccc2nc2ccccc12 [9-aminoacridine] | – | – | – | 4.15 | – | – | – | – | – | – | – | – | –
3 | CCN(CC)Cc1cc(Nc2ccnc3cc(Cl)ccc23)ccc1O [Amodiaquin, amodiaquin] | – | – | – | 4.40 | 8.40 | effective cholinesterase inhibitor | – | – | – | – | – | – | –
4 | CCN(CC)CCCC(C)Nc1ccnc2cc(Cl)ccc12 (centres unmarked) [Chloroquine, chloroquine] | – | – | – | 3.22 | – | – | approximately one-twentieth | 0.067 | ≤ 10^-3 M | 5.40 | less than one-thousandth | 5(4) | 0.001
5 | CCN(CC)CCCC(C)Nc1c2ccc(Cl)cc2nc2ccc(OC)cc12 (centres unmarked) [Quinacrine, quinacrine] | – | – | – | 4.05 | 5.40 | – | approximately one-half | 0.44 | ≤ 10^-3 M | – | less than one-thousandth | 4(5) | 0.001
